Measured values from PubChem BioAssay (NCI).
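96-well plates; 48 h exposure; 5 concentrations. Endpoints by linear interpolation between flanking doses. Not reached: highest tested concentration assigned. At the TGI there is no net growth.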

Assays:
Experiment in all cases: NCI-60 cell line screen, 48 h
BT-549 breast = system: BT-549 breast
MDA-MB-231 breast = system: MDA-MB-231 breast
MCF7 breast = system: MCF7 breast
HCT-15 colon = system: HCT-15 colon
LOX IMVI melanoma = system: LOX IMVI melanoma
RPMI-8226 leukemia = system: RPMI-8226 leukemia
IGROV1 ovarian = system: IGROV1 ovarian
COLO 205 colon = system: COLO 205 colon
OVCAR-4 ovarian = system: OVCAR-4 ovarian
SK-MEL-2 melanoma = system: SK-MEL-2 melanoma
MDA-N = system: MDA-N
HCC-2998 colon = system: HCC-2998 colon
HOP-62 NSCLC = system: HOP-62 NSCLC
UO-31 renal = system: UO-31 renal
A498 renal = system: A498 renal
SK-OV-3 ovarian = system: SK-OV-3 ovarian
SF-268 CNS = system: SF-268 CNS
TK-10 renal = system: TK-10 renal
HL-60(TB) leukemia = system: HL-60(TB) leukemia

| Compound | TGI (BT-549 breast) [µM] | TGI (MDA-MB-231 breast) [µM] | TGI (MCF7 breast) [µM] | TGI (HCT-15 colon) [µM] | TGI (LOX IMVI melanoma) [µM] | TGI (RPMI-8226 leukemia) [µM] | TGI (IGROV1 ovarian) [µM] | TGI (COLO 205 colon) [µM] | TGI (OVCAR-4 ovarian) [µM] | TGI (SK-MEL-2 melanoma) [µM] | TGI (MDA-N) [µM] | TGI (HCC-2998 colon) [µM] | TGI (HOP-62 NSCLC) [µM] | TGI (UO-31 renal) [µM] | TGI (A498 renal) [µM] | TGI (SK-OV-3 ovarian) [µM] | TGI (SF-268 CNS) [µM] | TGI (TK-10 renal) [µM] | TGI (HL-60(TB) leukemia) [µM] |
| --- | --- | --- | --- | --- | --- | --- | --- | --- | --- | --- | --- | --- | --- | --- | --- | --- | --- | --- | --- |
| O=S(=O)(O)c1ccc(O)c2ncc(Cl)cc12 | > 100 | > 100 | > 100 | > 100 | > 100 | > 100 | > 100 | > 100 | > 100 | > 100 | > 100 | > 100 | > 100 | > 100 | > 100 |  |  |  |  |
| O=C(/C=C(\O)c1ccccc1)C(=O)NNc1ccc([N+](=O)[O-])cc1[N+](=O)[O-] | 48.2 | 67.6 | > 100 | 35.4 | 64.3 | 82.4 | 38.2 | 32.3 | 95 | > 100 | 78.1 | 30 | 37.8 | 27.5 | 70.4 | 41.6 | 37.8 | 49 |  |
| CC12CCC(CC1=O)C2(C)CCC(N)=O (stereo not given) | > 100 | > 100 | > 100 | > 100 |  | > 100 | > 100 | > 100 | > 100 | > 100 | > 100 | > 100 | > 100 | > 100 | > 100 | > 100 | > 100 | > 100 |  |
| CCOC(=O)C1=[N+]([O-])OC2=C(O)CCCC21 (stereo not given) | > 100 | > 100 | > 100 | > 100 | > 100 | > 100 | > 100 | > 100 | > 100 | > 100 | > 100 | > 100 | > 100 | > 100 | > 100 | > 100 | > 100 | > 100 |  |
| [N-]=[N+]=Nc1c(C=O)c(=O)n2c3c(cccc13)CCC2 | 6.07 | 32.1 | 10.6 | 11.5 | 25.4 | > 22.3 | 25 | 4.63 | 8.49 |  | 15.3 | 33.6 | 35.2 | 6.39 | 28.8 | 33.9 | 35.4 | 10.1 | > 100 |
| C/C(=N/NC(=S)Nc1ccc([N+](=O)[O-])cc1)c1cccc(/C(C)=N\NC(=S)Nc2ccc([N+](=O)[O-])cc2)n1 | 2.36 | 17.7 | 3.86 | 2.67 | 12.7 | 8.8 | 8.11 | 15.7 | 49.4 | 23.6 | 15.1 | 21.5 | 11.1 | 4.97 | 9.74 | 10.7 | > 100 | 15.7 |  |
| COc1ccc2c(C)cc(N/N=C(\C)C=O)nc2c1 | 29.3 | 24 | 26 | 15.2 | 24 | 22.9 | 33.5 | 30.6 | 25.5 | 33.1 | 28.6 | 24.5 | 27.1 | 26.4 | 27.9 | 23.2 | 41.1 | 30.1 |  |
| N=c1oc2c(Cl)cc(Cl)cc2cc1C(=O)Nc1cccc2ccccc12 | > 100 | 11.3 | > 100 | > 100 | > 24 | 53.3 | 40.6 | > 32.7 | 6.37 |  | > 100 | > 59.6 | 42.3 | > 40.9 | 23.7 | > 77.6 | > 100 | 4.71 | > 100 |
| COC12OC3(C4OC41)C(C(=O)O[C@H]3CO[Si](C)(C)C(C)(C)C)C2C(=O)Oc1ccccc1 (stereo not given in full) | > 100 | > 100 | > 100 | > 100 | > 100 | > 100 | > 100 | > 100 | > 100 | > 100 | > 100 | > 100 | > 100 | > 100 | > 100 | > 100 | > 100 | > 100 |  |
| O=C(Cc1ccccc1)NNc1nc(NNC(=O)c2ccncc2)nc(Nc2ccc([N+](=O)[O-])cc2)n1 | > 10 | > 10 | > 10 | > 10 | > 10 | > 10 | > 10 | > 10 | > 10 |  | > 10 | > 10 | > 10 | > 10 | > 10 | > 10 | > 10 | > 10 |  |
| COCCN(C(C)=O)C1CCC2(SCCS2)c2[nH]c3ccccc3c21 (stereo not given) | > 100 | > 100 | > 100 | > 100 | > 100 | > 100 | > 100 | > 100 |  |  | > 100 | > 100 | > 100 |  | > 100 |  | > 100 | > 100 | > 100 |
